Experimental data: ChEMBL document CHEMBL6153083, “Synthesis, Structural Modification, and Antismall Cell Lung Cancer Activity of 3-Arylisoquinolines with Dual Inhibitory Activity on Topoisomerase I and II” (J Med Chem, 2025)

How the values were obtained:
[1] = Antiproliferative activity against human NCI-H196 cells incubated for 72 hrs; type: functional, cell-based; details: NCI-H196, 72 h
[2] = test system: NCI-H446; test: Antiproliferative activity against human NCI-H446 cells incubated for 72 hrs; type: functional, cell-based; details: NCI-H446, 72 h
[3] = test system: NCI-H209; test: Antiproliferative activity against human NCI-H209 cells incubated for 72 hrs; type: functional, cell-based; details: NCI-H209, 72 h
[4] = test system: SHP77; test: Antiproliferative activity against human SHP77 cells incubated for 72 hrs; type: functional, cell-based; details: SHP77, 72 h
[5] = Antiproliferative activity against human BEAS-2B cells incubated for 72 hrs; type: toxicity, cell-based
[6] = Antiproliferative activity against human L02 cells incubated for 72 hrs; type: toxicity, cell-based
[7] = test system: NCI-H82; test: Antiproliferative activity against human NCI-H82 cells incubated for 72 hrs; type: functional, cell-based; details: NCI-H82, 72 h
[8] = test system: NCI-H1048; test: Antiproliferative activity against human NCI-H1048 cells incubated for 72 hrs; type: functional, cell-based; details: NCI-H1048, 72 h
[9] = test system: NCI-H146; test: Antiproliferative activity against human NCI-H146 cells incubated for 72 hrs; type: functional, cell-based; details: NCI-H146, 72 h

Row | Compound | IC50 [1] [µM] | IC50 [2] [µM] | IC50 [3] [µM] | IC50 [4] [µM] | IC50 at 72 h [5] [µM] | IC50 at 72 h [6] [µM] | IC50 [7] [µM] | IC50 [8] [µM] | IC50 [9] [µM]
1 | FC1CCCN(Cc2cc3c(cc2-c2cc4ccc5c(c4cn2)OCO5)OCO3)CC1 (stereo unspecified) | 35.7 | 20.6 | 58.3 | 42.4 | 33.7 | > 100 | 37.8 | 17.7 | –
2 | FC1CCN(Cc2cc3c(cc2-c2cc4ccc5c(c4cn2)OCO5)OCO3)CC1 | > 100 | 97.8 | > 100 | > 100 | > 100 | > 100 | > 100 | > 100 | > 100
3 | NC(=O)C1CCN(Cc2cc3c(cc2-c2cc4ccc5c(c4cn2)OCO5)OCO3)CC1 | 57.7 | 74.1 | 77 | 41.5 | 28.8 | 25.1 | 63.4 | 38.6 | > 100
4 | c1c(CN2CC3(CCC3)C2)c(-c2cc3ccc4c(c3cn2)OCO4)cc2c1OCO2 | 30.9 | 24.4 | 50.2 | 37.6 | 30.4 | > 100 | 58.1 | 30.5 | > 100
5 | ClC1CCN(Cc2cc3c(cc2-c2cc4ccc5c(c4cn2)OCO5)OCO3)CC1 | 62.4 | 38.2 | > 100 | > 100 | > 100 | > 100 | > 100 | > 100 | > 100
6 | OCC1CN(Cc2cc3c(cc2-c2cc4ccc5c(c4cn2)OCO5)OCO3)C1 | 42.5 | 60.7 | 79.5 | 63.4 | 23 | > 100 | 80.3 | 61.4 | > 100
7 | COc1ccc2cc3[n+](cc2c1OC)CCc1cc2c(cc1-3)OCO2 [BERBERINE] | > 100 | 78.6 | 65 | > 100 | > 100 | > 100 | – | > 100 | > 100
8 | CC1(C)CCN(Cc2cc3c(cc2-c2cc4ccc5c(c4cn2)OCO5)OCO3)CC1 | > 100 | 55.7 | > 100 | > 100 | > 100 | > 100 | > 100 | > 100 | > 100
9 | CC(=O)C1CCN(Cc2cc3c(cc2-c2cc4ccc5c(c4cn2)OCO5)OCO3)CC1 | 51.5 | 49.2 | > 100 | 93.9 | > 100 | > 100 | > 100 | > 100 | > 100
10 | CCCC1CCN(Cc2cc3c(cc2-c2cc4ccc5c(c4cn2)OCO5)OCO3)CC1 | 10.2 | 14.5 | 64.1 | 28.2 | > 100 | 84.2 | > 100 | > 100 | 37
11 | c1c(CN2CCCCCCCC2)c(-c2cc3ccc4c(c3cn2)OCO4)cc2c1OCO2 | 13.9 | 12.5 | 30.7 | 16.3 | 17 | 24.8 | 15 | 7.22 | 14
12 | c1c(CN2CCCC2)c(-c2cc3ccc4c(c3cn2)OCO4)cc2c1OCO2 | 34.3 | 39.8 | 81.2 | 28.8 | 29 | 33.6 | 59.7 | 25.3 | 42.6
